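Grown in 96-well plates, cells were treated for 48 hours with each compound at five concentrations. Insufficient inhibition: endpoint recorded as highest concentration tested. Abbreviation: GI50, concentration required for 50% inhibition of growth.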 Activity calls are given as the source filed them. Rule as the data show it: active = GI50 up to about 1.1 µM and inactive = higher.

We go through 10 molecules from ChEMBL document CHEMBL1201862, “PubChem BioAssay data set” (2004).

Test systems include ACHN; CAKI-1; COLO 205; EKVX; HCT-15; HL-60; HOP-92; MDA-MB-435; MDA-N; MOLT-4; NCI-H226; NCI-H460; OVCAR-5; OVCAR-8; RXF 393; SK-MEL-5; SK-OV-3; SN12C; UACC-257; UO-31.
Assay in all cases: growth of human tumour cells (NCI), 48 h

As for `CSc1nc(C)c(CCOC(C)=O)c(Cl)n1`, the GI50 in the test with ACHN was > 100 µM (inactive); in the test on CAKI-1 it was > 100 µM (inactive); in the test with COLO 205 it was > 100 µM (inactive); with EKVX it was > 100 µM (inactive); in the test with HCT-15, > 100 µM; in the test on HL-60, > 100 µM (inactive). Moreover, the GI50 in the test on HOP-92, in the test with MDA-MB-435, in the test on MDA-N, in the test with MOLT-4, with NCI-H226 and in the test with NCI-H460 was > 100 µM (inactive) in each case. Further, the GI50 in the test on OVCAR-5, with OVCAR-8, in the test with RXF 393, in the test on SK-MEL-5, with SK-OV-3 and in the test on SN12C was > 100 µM (inactive) in each case. Also, the GI50 in the test with UACC-257 and with UO-31 was > 100 µM (inactive) in each case.

In the case of `CCCn1c(=O)c2ccccc2[n+]2c(-c3ccc([N+](=O)[O-])cc3)csc12`, the GI50 in the test on ACHN is 35.9 µM (inactive); in the test with CAKI-1, 40.9 µM (inactive); in the test with COLO 205, 39.9 µM (inactive); in the test with EKVX it was 42.7 µM (inactive); in the test on HCT-15 it was 34.3 µM; in the test with HL-60 it was 24.4 µM (inactive). In addition, the GI50 with HOP-92 was 32.4 µM (inactive); with MDA-MB-435, 38.6 µM (inactive); in the test on MDA-N it was 31.3 µM (inactive); in the test with MOLT-4 it was 30.6 µM (inactive); in the test with NCI-H226, 29.4 µM (inactive); in the test with NCI-H460 it was 21.9 µM (inactive). The GI50 in the test with OVCAR-5 is 17.8 µM (inactive); with OVCAR-8 it was 13.6 µM (inactive); in the test with RXF 393, 18.1 µM (inactive); in the test on SK-MEL-5, 18.6 µM (inactive); in the test on SK-OV-3, 36.9 µM (inactive); in the test with SN12C, 41.3 µM (inactive). Also, the GI50 with UACC-257 is 27.7 µM (inactive); with UO-31 it was 18.3 µM (inactive).

Take `COC(=O)/C=C\c1ccc2c(c1)CC1(C2)Cc2ccc(/C=C/C(=O)OC)cc2C1` (centres undefined): the GI50 was > 31.6 µM (inactive) in the test on ACHN; 0.918 µM (active) in the test with CAKI-1; > 31.6 µM (inactive) with COLO 205; > 31.6 µM (inactive) in the test with EKVX; > 31.6 µM with HCT-15; > 31.6 µM (inactive) with HL-60. Also, the GI50 is 28.4 µM (inactive) in the test with HOP-92; > 31.6 µM (inactive) in the test with MDA-MB-435; > 31.6 µM (inactive) in the test with MDA-N; > 31.6 µM (inactive) in the test with MOLT-4; > 31.6 µM (inactive) with NCI-H226; > 100 µM (inactive) with NCI-H460. The GI50 in the test on OVCAR-5 is > 31.6 µM (inactive); in the test on OVCAR-8 it was 30.8 µM (inactive); in the test on RXF 393, > 31.6 µM (inactive); in the test with SK-MEL-5, > 31.6 µM (inactive); in the test with SK-OV-3 it was > 31.6 µM (inactive); in the test on SN12C, > 31.6 µM (inactive). For the same molecule, the GI50 with UACC-257 and in the test with UO-31 was > 31.6 µM (inactive) in each case.

As to `O=C1c2c(O)ccc(O)c2C(=O)c2c(NCCNC(=O)C(O)C(O)C(O)C(O)CO)ccc(NCCNC(=O)C(O)C(O)C(O)C(O)CO)c21` (centres undefined), the GI50 in the test with ACHN was < 0.01 µM (active); with CAKI-1, < 0.01 µM (active); in the test on COLO 205, < 0.01 µM (active); in the test with EKVX it was 0.165 µM (active); with HCT-15, 0.0138 µM; with HL-60, < 0.01 µM (active). Also, the GI50 was < 0.01 µM (active) in the test with HOP-92; 0.355 µM (active) in the test with MDA-MB-435; < 0.0494 µM (active) in the test on MDA-N; < 0.01 µM (active) in the test with MOLT-4; < 0.0126 µM (active) with NCI-H226; < 0.01 µM (active) in the test with NCI-H460. Besides, the GI50 is 0.192 µM (active) with OVCAR-5; < 0.0231 µM (active) with OVCAR-8; 0.221 µM (active) in the test on RXF 393; 0.016 µM (active) in the test on SK-MEL-5; < 0.0233 µM (active) in the test with SK-OV-3; < 0.01 µM (active) with SN12C. For the same molecule, the figures for the GI50 in the test with UACC-257 and in the test with UO-31 were 1.11 µM (active) and 0.0186 µM (active), respectively.

In the case of `Cc1ccc(C(=O)/C=C2/Nc3ccccc3NC2=O)c(C)c1`, the GI50 with ACHN is 8.36 µM (inactive); with CAKI-1, 3.95 µM (inactive); in the test with COLO 205, 62.1 µM (inactive); with EKVX, 8.77 µM (inactive); with HCT-15, 64.3 µM; in the test on HL-60, 23.4 µM (inactive). Further, the GI50 in the test with HOP-92 is 3.04 µM (inactive); in the test with MDA-MB-435, 30.8 µM (inactive); in the test with MDA-N, 17.5 µM (inactive); in the test with MOLT-4, 45.5 µM (inactive); in the test with NCI-H226, 10.8 µM (inactive); in the test on NCI-H460, 13.2 µM (inactive). Also, the GI50 in the test on OVCAR-5 was 44.7 µM (inactive); in the test with OVCAR-8, 5.28 µM (inactive); in the test on RXF 393, 7.52 µM (inactive); in the test on SK-MEL-5 it was 19 µM (inactive); in the test with SK-OV-3, 7.05 µM (inactive); in the test on SN12C, 16 µM (inactive). Further, the GI50 with UACC-257 was 42.1 µM (inactive); in the test with UO-31 it was 8.32 µM (inactive).

Take `CC(C)(C)OC(=O)C1=C(C(=O)OC(C)(C)C)SC2(S1)C(C(=O)OC(C)(C)C)=C(C(=O)OC(C)(C)C)Sc1c2ssc1=O`: the GI50 with ACHN was 44.1 µM (inactive); in the test with CAKI-1 it was 83.8 µM (inactive); with COLO 205 it was 62.7 µM (inactive); in the test on EKVX, 79.3 µM (inactive); with HCT-15 it was > 100 µM; with HL-60, 39.4 µM (inactive). For the same molecule, the GI50 in the test on HOP-92 is > 100 µM (inactive); with MDA-MB-435 it was 27.5 µM (inactive); with MDA-N, 45.2 µM (inactive); in the test on MOLT-4, 7.67 µM (inactive); in the test on NCI-H460 it was 51.2 µM (inactive); with OVCAR-5 it was 59.8 µM (inactive). Further, the GI50 is 49.9 µM (inactive) in the test with OVCAR-8; 45.2 µM (inactive) with RXF 393; > 100 µM (inactive) in the test on SK-MEL-5; > 100 µM (inactive) with SK-OV-3; 38.3 µM (inactive) with SN12C; > 100 µM (inactive) with UACC-257. Besides, the GI50 in the test on UO-31 was 56.8 µM (inactive).

As for `COC(=O)[C@@H]1CN(C(=O)CCc2ccccc2)C(=O)N1C(=O)OCc1ccccc1`, the GI50 is > 100 µM (inactive) in the test on ACHN; > 100 µM (inactive) in the test on CAKI-1; > 100 µM (inactive) in the test on COLO 205; > 100 µM (inactive) in the test on EKVX; > 100 µM with HCT-15; > 100 µM (inactive) in the test on HL-60. In addition, the GI50 is > 100 µM (inactive) in the test with HOP-92; > 100 µM (inactive) with MDA-MB-435; > 100 µM (inactive) with MDA-N; > 100 µM (inactive) in the test with MOLT-4; > 100 µM (inactive) with NCI-H226; 59.4 µM (inactive) in the test with NCI-H460. Also, the GI50 in the test with OVCAR-5, in the test on OVCAR-8, in the test on RXF 393, with SK-MEL-5, in the test with SK-OV-3 and with SN12C was > 100 µM (inactive) each time. In addition, the GI50 in the test with UACC-257 and in the test on UO-31 was > 100 µM (inactive) throughout.

Consider `CC1CN(c2cc3c(cc2F)c(=O)c(C(=O)O)cn3-c2ccc(F)cn2)CC(C)N1` (centres undefined), for which the GI50 is > 100 µM (inactive) in the test on CAKI-1; > 100 µM (inactive) in the test on COLO 205; > 100 µM (inactive) with EKVX; > 100 µM in the test on HCT-15; > 100 µM (inactive) with HL-60; > 100 µM (inactive) in the test with HOP-92. The GI50 in the test on MDA-MB-435, in the test on MDA-N, in the test on MOLT-4, with NCI-H226, with NCI-H460 and in the test with OVCAR-5 was > 100 µM (inactive) throughout. Also, the GI50 with OVCAR-8, with RXF 393, with SK-OV-3, with SN12C, in the test on UACC-257 and in the test with UO-31 was > 100 µM (inactive) in each case.

With `Cc1nc2sc3cccc(Cl)c3n2c(=O)c1/N=N/c1ccc(Cl)cc1`, the GI50 is 59.7 µM (inactive) in the test with ACHN; > 100 µM (inactive) in the test on CAKI-1; 94.6 µM (inactive) in the test with COLO 205; 38.5 µM (inactive) in the test with EKVX; > 100 µM with HCT-15; > 100 µM (inactive) with HL-60. Besides, the GI50 in the test on HOP-92 is 46.6 µM (inactive); in the test with MDA-MB-435 it was > 100 µM (inactive); in the test with MDA-N, > 100 µM (inactive); in the test with MOLT-4 it was 44.9 µM (inactive); with NCI-H226, 42.4 µM (inactive); in the test with NCI-H460, > 100 µM (inactive). Also, the GI50 with OVCAR-5 was > 100 µM (inactive); in the test with OVCAR-8 it was > 100 µM (inactive); in the test with RXF 393 it was > 100 µM (inactive); in the test on SK-MEL-5, 68.2 µM (inactive); in the test on SK-OV-3, > 100 µM (inactive); in the test with SN12C, > 100 µM (inactive). Besides, in the test on UACC-257, the GI50 was 98.6 µM (inactive).

`O=C1COCCN1C(=O)c1ccccc1Cl`: the GI50 in the test on ACHN was > 100 µM (inactive); in the test on CAKI-1, > 100 µM (inactive); in the test with EKVX, > 100 µM (inactive); with HCT-15, > 100 µM; in the test with HL-60, > 100 µM (inactive); with HOP-92, > 100 µM (inactive). For the same molecule, the GI50 was > 100 µM (inactive) in the test on MDA-MB-435; > 100 µM (inactive) in the test with MDA-N; > 10 µM (inactive) in the test with MOLT-4; > 100 µM (inactive) in the test on NCI-H226; > 100 µM (inactive) in the test on NCI-H460; > 100 µM (inactive) with OVCAR-5. For the same molecule, the GI50 in the test with OVCAR-8, in the test with RXF 393, in the test with SK-MEL-5, in the test with SN12C, in the test with UACC-257 and in the test with UO-31 was > 100 µM (inactive) each time.
